Test results reported in patent US5064850A, “Dihydro-3,3-diphenyl-5-(1H-pyrazol-1-ylmethyl-2(3H)-furanone and dihydro-5-((substituted-1H-pyrazol-1-yl)methyl)-3,3-diphenyl-2(3H)-furan one derivatives” (Marion Merrell Dow Inc., priority 1991, dated 1991).
Where a name gives a salt, the structure may show the parent alone.

target: T1, postsynaptic muscarinic cholinergic receptors on intestinal (ileal-longitudinal) smooth muscle (Cavia porcellus, UniProt H0W1Z3); assay: Antimuscarinic Test Protocol: antagonism of carbachol-induced contraction of ileum strips (Table 1); format: cell-based, guinea pig; settings: carbachol as agonist, read-out: Anti-muscarinic Activity Kb
T1 construct: The longitudinal muscle, with the myenteric plexus attached, is separated from the underlying circular muscle; from tissue; host or cells: guinea pig ileum, longitudinal muscle strip with myenteric plexus attached
Experimental: Antimuscarinic Test Protocol.
Male albino guinea pigs are killed by decapitation or cervical dislocation. The cavity is opened and the small intestine is removed, with about 10 cm of the terminal ileum being discarded. The intestine is placed in a Petri dish that contains Tyrodes solution (137 mM NaCl, 2.78 mM KCl, 1.8 mM CaCl2.2H2 O, 1.1 mM MgCl2.6H2 O, 0.4 mM […], 11.8 mM NaHCO3, 5.6 mM dextrose) and cut into 3-4 cm segments. The segments are preferentially taken from the aboral end of the ileum. Each segment is carefully stretched onto a glass rod 6 mm in diameter and the remaining mesenteric tissue is cut away. The longitudinal muscle, with the myenteric plexus attached, is separated from the underlying circular muscle by gently stroking with a cotton-tipped applicator soaked in Tyrodes solution on a tangent away from the shallow longitudinal incisions made parallel to the mesenteric attachment. Using gentle traction, and taking care to keep the segment moist throughout the whole procedure, the tissue is stripped from the whole length of the segment (Paton and Zar, J. Physiol. 194:13, 1968).
Tissues are suspended with 5-0 silk suture in 10 mL water-jacketed glass tissue baths containing Tyrodes solution maintained at 37° C. and aerated with 95% O2 /5% CO2. The suture connects each tissue to an isometric force-displacement transducer (Grass or Gould) coupled to a physiograph. Each preparation is suspended under a resting tension of 0.3 g and allowed to equilibrate for 36 minutes. During this period, the baths are emptied and filled every 12 minutes with 10 mL of warm Tyrodes solution. At the end of this equilibration period, each muscle strip is conditioned by adding 10 mM carbachol to the baths. The drug remains in contact with each tissue for 1-2 minutes and then is removed from the bath with 4 rapid rinses of 10 mL of warm Tyrodes solution. The preparations are allowed to recover for an additional 12 minutes before being used in experiments.
Carbachol is dissolved in saline to produce 2×10^-2 M stock concentrations. Serial dilutions (1:10) in saline or water are made from the stock solution. Appropriate volumes of these solutions are added cumulatively to the 10 mL tissue baths in order to obtain the desired bath concentrations.
Compounds that are soluble in water or saline are dissolved in these solvents to produce 2×10^-2 or 2×10^-3 M stock concentrations. Small amounts of 1 N HCl, NaOH, or 95 ethanol may be added for those agents that are not soluble in water or saline alone. […] in dimethylsulfoxide (DMSO) to produce 4×10^-2 M stock solutions. Serial dilutions (1:10) in water are made from the stock solution. Other solvents may be used when appropriate and will be specifically described in the experimental procedure. Appropriate volumes are then added to the baths in order to obtain the desired bath concentrations.
Appropriate volumes of carbachol solutions are cumulatively added to the 10 mL tissue baths to increase the concentration of carbachol in the bath step-by-step without washing out after each single dose. With each concentration step, the tissue contracts isometrically. The next concentration is added only after the preceding contraction has reached a steady value. […] The tissue is then washed with 4 rapid rinses of 10 mL of warm Tyrodes solution and allowed to recover for 12 minutes [Van Rossum et al., Arch. Int. Pharmacodyn. 143:240, (1963) and 143:299, (1963)]. Antagonism of carbachol responses in the presence of antagonist is determined by repeating the cumulative addition procedure after the tissue has been exposed to the […] for 5 minutes.
Three or four different concentrations of antagonist are studied in the same preparations. Responses are expressed relative to the maximum contraction elicited by carbachol in the absence of antagonist.

T1 sequence (H0W1Z3 1-590): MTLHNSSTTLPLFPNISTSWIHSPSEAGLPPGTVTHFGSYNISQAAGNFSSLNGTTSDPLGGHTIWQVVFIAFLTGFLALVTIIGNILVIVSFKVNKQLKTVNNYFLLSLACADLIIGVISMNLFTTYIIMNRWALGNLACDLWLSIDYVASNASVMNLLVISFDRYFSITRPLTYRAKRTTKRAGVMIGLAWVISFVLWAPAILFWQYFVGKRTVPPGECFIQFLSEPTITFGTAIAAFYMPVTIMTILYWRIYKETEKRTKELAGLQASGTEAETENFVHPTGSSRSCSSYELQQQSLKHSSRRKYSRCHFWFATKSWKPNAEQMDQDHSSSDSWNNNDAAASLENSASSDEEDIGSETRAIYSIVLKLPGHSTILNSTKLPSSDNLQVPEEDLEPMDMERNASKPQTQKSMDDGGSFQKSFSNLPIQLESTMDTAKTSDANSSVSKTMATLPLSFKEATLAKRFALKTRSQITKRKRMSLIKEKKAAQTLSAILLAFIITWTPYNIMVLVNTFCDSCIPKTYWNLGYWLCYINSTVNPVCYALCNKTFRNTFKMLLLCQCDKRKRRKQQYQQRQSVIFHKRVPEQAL

Row | Structure (SMILES) | Kb [nM]
1 | O=C1OC(Cn2cccn2)CC1(c1ccccc1)c1ccccc1 (centres unmarked) [Dihydro-3,3-diphenyl-5-(1H-pyrazol-1-ylmethyl)-2(3H)-furanone] | 50
2 | Cc1cc(C)n(CC2CC(c3ccccc3)(c3ccccc3)C(=O)O2)n1 (centres unmarked) [Dihydro-5-[(3,5-dimethyl-1H-pyrazol-1-yl)methyl]-3.3-diphenyl-2(3H)-furanone hydrochloride] | 1000
3 | Cc1ccn(CC2CC(c3ccccc3)(c3ccccc3)C(=O)O2)n1 (centres unmarked) [Dihydro-5-[(3-methyl-1H-pyrazol-1-yl)methyl]-3,3-diphenyl-2(3H)-furanone] | 239
4 | Cc1cnn(CC2CC(c3ccccc3)(c3ccccc3)C(=O)O2)c1 (centres unmarked) [Dihydro-5-[(4-methyl-1H-pyrazol-1-yl)methyl]-3,3-diphenyl-2(3H)-furanone] | 251
5 | CC[n+]1cccn1CC1CC(c2ccccc2)(c2ccccc2)C(=O)O1 (centres unmarked) [Ethyl dihydro-3,3-diphenyl-5-(1H-pyrazol-1-ylmethyl)-2(3H)-furanone chloride] | 49
6 | CC[n+]1c(C)ccn1CC1CC(c2ccccc2)(c2ccccc2)C(=O)O1 (centres unmarked) [Ethyl dihydro-5-[(3-methyl-1H-pyrazol-1-yl)methyl]-3,3-diphenyl-2(3H)-furanone chloride hydrate] | 52
7 | CC[n+]1cc(C)cn1CC1CC(c2ccccc2)(c2ccccc2)C(=O)O1 (centres unmarked) [Ethyl dihydro-5-[(4-methyl-1H-pyrazol-1-yl)methyl]-3,3-diphenyl-2(3H)-furanone chloride hydrate] | 148
8 | C[n+]1cccn1CC1CC(c2ccccc2)(c2ccccc2)C(=O)O1 (centres unmarked) [Methyl dihydro-3,3-diphenyl-5-(1H-pyrazol-1-ylmethyl)-2(3H)-furanone chloride hydrate] | 100
9 | Cc1ccn(CC2CC(c3ccccc3)(c3ccccc3)C(=O)O2)[n+]1C (centres unmarked) [Methyl dihydro-5-[(3-methyl-1H-pyrazol-1-yl)methyl]-3,3-diphenyl-2(3H)-furanone chloride hydrate] | 142
10 | Cc1cn(CC2CC(c3ccccc3)(c3ccccc3)C(=O)O2)[n+](C)c1 (centres unmarked) [Methyl dihydro-5-[(4-methyl-1H-pyrazol-1-yl)methyl]-3,3-diphenyl-2(3H)-furanone chloride hydrate] | 117

test system: isolated guinea pig ileum; assay: not given; settings: cited from earlier work

Row | Structure (SMILES) | prevention of contractions of isolated guinea pig ileum
11 | CN(C)CC1CC(c2ccccc2)(c2ccccc2)OC1=O (centres unmarked) [3-[(dimethylamino)methyl]-4,5-dihydro-5,5-diphenyl-2(3H)furanone] | prevents contractions of isolated guinea pig ileum
